Active and inactive are the calls of the source. No rule for the calls is given here.
Test system: rodent carcinogenicity bioassays, tumor incidence
Assay: CCRIS carcinogenicity studies
Method in brief: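 Archive of carcinogenicity, mutagenicity, tumor promotion and tumor inhibition results drawn from journals, NCI reports and other sources, expert-reviewed; covers 1985-2011 and is no longer updated.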

Compound: C[C@]12CC[C@@H]3c4ccc(O)cc4CC[C@H]3[C@@H]1C[C@@H](O)[C@@H]2O
- carcinogen call (Species: HAMSTER, Route: SUBCUTANEOUS IMPLANT, Tumor Site: Type of Lesion: KIDNEY): active; positive
- carcinogen call (Species: HUMAN, Tumor Site: Type of Lesion: UTERUS (ENDOMETRIUM)): active; positive
- carcinogen call (Species: MOUSE, Route: SUBCUTANEOUS IMPLANT, Tumor Site: Type of Lesion: MAMMARY GLAND): active; positive

Compound: O=C1NS(=O)(=O)c2ccccc21
- carcinogen call (Species: MONKEY, Strain/Sex: AFRICAN GREEN, RHESUS, CYNOMOLGUS, HYBRID/MALE, FEMALE, Route: ORAL, Dose: 0, 25 MG/KG BW IN FOOD 5 D/WK FOR DURATION OF STUDY (STUDY DURATION: 24 YR)): inactive; negative
- carcinogen call (Species: RAT, Strain/Sex: ANALBUMINEMIC/MALE, Route: ORAL, Dose: 0, 5% IN DIET FOR 80 WK (STUDY DURATION: 80 WK)): inactive; negative
- carcinogen call (Species: RAT, Strain/Sex: SPRAGUE-DAWLEY/MALE, Route: ORAL, Dose: 0, 5% IN DIET FOR 80 WK (STUDY DURATION: 80 WK)): inactive; negative

Compound: ClC1=CC(c2cc(Cl)ccc2Cl)=C(Cl)[C@H]2O[C@@H]12
- carcinogen call (Species: MOUSE, Strain/Sex: STRAIN-A/FEMALE, Route: INTRAPERITONEAL, Dose: 0, 0.1, 0.2 UMOL/UL OF DMSO 5, 10 AND 20 µL GIVEN ON DAYS 4, 8 AND 15 AFTER BIRTH, RESPECTIVELY (STUDY DURATION: 28 WK), Dose: 0, 0.1, 0.2 UMOL/UL OF DMSO 5, 10 AND 20 µL GIVEN ON DAYS 4, 8 AND 15 AFTER BIRTH, RESPECTIVELY (STUDY DURATION: 28 WK)): inactive; negative
- carcinogen call (Species: MOUSE, Strain/Sex: STRAIN-A/MALE, Route: INTRAPERITONEAL, Dose: 0, 0.1, 0.2 UMOL/UL OF DMSO 5, 10 AND 20 µL GIVEN ON DAYS 4, 8 AND 15 AFTER BIRTH, RESPECTIVELY (STUDY DURATION: 28 WK), Dose: 0, 0.1, 0.2 UMOL/UL OF DMSO 5, 10 AND 20 µL GIVEN ON DAYS 4, 8 AND 15 AFTER BIRTH, RESPECTIVELY (STUDY DURATION: 28 WK)): inactive; negative

Compound: O=S(=O)(O)c1ccc(N=Nc2c(O)ccc3cc(S(=O)(=O)O)ccc23)cc1
- carcinogen call (Species: MOUSE, Strain/Sex: B6C3F1/FEMALE, Route: ORAL, Dose: 0, 12500, 25000 PPM IN DIET, Dose: 0, 12500, 25000 PPM IN DIET): inactive; negative
- carcinogen call (Species: MOUSE, Strain/Sex: B6C3F1/MALE, Route: ORAL, Dose: 0, 12500, 25000 PPM IN DIET, Dose: 0, 12500, 25000 PPM IN DIET): inactive; negative
- carcinogen call (Species: MOUSE, Strain/Sex: SWISS-WEBSTER/FEMALE, Route: DERMAL, Dose: 0, 1% IN 0.1 ML DISTILLED WATER 1/WK FOR 19.5 MO (STUDY DURATION: 19.5 MO)): inactive; negative
- carcinogen call (Species: MOUSE, Strain/Sex: SWISS-WEBSTER/MALE, Route: DERMAL, Dose: 0, 1% IN 0.1 ML DISTILLED WATER 1/WK FOR 19.5 MO (STUDY DURATION: 19.5 MO)): inactive; negative
- carcinogen call (Species: RAT, Strain/Sex: F344/FEMALE, Route: ORAL, Dose: 0, 12500, 25000 PPM IN DIET, Dose: 0, 12500, 25000 PPM IN DIET): inactive; negative
- carcinogen call (Species: RAT, Strain/Sex: F344/MALE, Route: ORAL, Dose: 0, 12500, 25000 PPM IN DIET, Dose: 0, 12500, 25000 PPM IN DIET): inactive; negative

Compound: Cn1c(=O)c2[nH]cnc2n(C)c1=O
- carcinogen call (Species: MOUSE, Strain/Sex: B6C3F1/FEMALE, Route: GAVAGE, Dose: 0, 7.5, 25, 75 MG/KG BW IN CORN OIL 5 D/WK FOR 726 D (STUDY DURATION: 2 YR), Dose: 0, 7.5, 25, 75 MG/KG BW IN CORN OIL 5 D/WK FOR 726 D (STUDY DURATION: 2 YR)): inactive; negative
- carcinogen call (Species: MOUSE, Strain/Sex: B6C3F1/MALE, Route: GAVAGE, Dose: 0, 15, 50, 150 MG/KG BW IN CORN OIL 5 D/WK FOR 726 D (STUDY DURATION: 2 YR), Dose: 0, 15, 50, 150 MG/KG BW IN CORN OIL 5 D/WK FOR 726 D (STUDY DURATION: 2 YR)): inactive; negative
- carcinogen call (Species: RAT, Strain/Sex: F344/FEMALE, Route: GAVAGE, Dose: 0, 7.5, 25, 75 MG/KG BW IN CORN OIL 5 D/WK FOR 729 D (STUDY DURATION: 2 YR), Dose: 0, 7.5, 25, 75 MG/KG BW IN CORN OIL 5 D/WK FOR 729 D (STUDY DURATION: 2 YR)): inactive; negative
- carcinogen call (Species: RAT, Strain/Sex: F344/MALE, Route: GAVAGE, Dose: 0, 7.5, 25, 75 MG/KG BW IN CORN OIL 5 D/WK FOR 729 D (STUDY DURATION: 2 YR), Dose: 0, 7.5, 25, 75 MG/KG BW IN CORN OIL 5 D/WK FOR 729 D (STUDY DURATION: 2 YR)): inactive; negative

Compound: C#CCO
- carcinogen call (Species: Mouse, Strain/Sex: B6C3F1/Female (50/Group), Route: Inhalation, Dose: 0, 8, 16, 32 ppm for 6 hr plus 14 min per d, 5 d per wk for 105 wk (Study duration: 105 wk), Dose: 0, 8, 16, 32 ppm for 6 hr plus 14 min per d, 5 d per wk for 105 wk (Study duration: 105 wk), Tumor Site: Type of Lesion: Respiratory epithelium: Adenoma (0/50; 2/50; 4/50; 6/50)): active; positive. conclusions of authors: some evidence of carcinogenic activity.
- carcinogen call (Species: Mouse, Strain/Sex: B6C3F1/Male (50/Group), Route: Inhalation, Dose: 0, 8, 16, 32 ppm for 6 hr plus 14 min per d, 5 d per wk for 105 wk (Study duration: 105 wk), Dose: 0, 8, 16, 32 ppm for 6 hr plus 14 min per d, 5 d per wk for 105 wk (Study duration: 105 wk), Tumor Site: Type of Lesion: Respiratory epithelium: Adenoma (0/49; 1/50; 4/50; 7/50), Harderian gland (3/50; 10/50; 6/50; 11/50), Tumor Site: Type of Lesion: Respiratory epithelium: Adenoma (0/49; 1/50; 4/50; 7/50), Harderian gland (3/50; 10/50; 6/50; 11/50)): active; positive. conclusions of authors: some evidence of carcinogenic activity based o
- carcinogen call (Species: Rat, Strain/Sex: F344/N / Female (50/Group), Route: Inhalation, Dose: 0, 16, 32, 64 ppm for 6 hr plus 14 min per d, 5 d per wk for 105 wk (Study duration: 105 wk), Dose: 0, 16, 32, 64 ppm for 6 hr plus 14 min per d, 5 d per wk for 105 wk (Study duration: 105 wk), Tumor Site: Type of Lesion: None): inactive; negative. conclusions of authors: no evidence of carcinogenic activity.
- carcinogen call (Species: Rat, Strain/Sex: F344/N / Male (50/Group), Route: Inhalation, Dose: 0, 16, 32, 64 ppm for 6 hr plus 14 min per d, 5 d per wk for 105 wk (Study duration: 105 wk), Dose: 0, 16, 32, 64 ppm for 6 hr plus 14 min per d, 5 d per wk for 105 wk (Study duration: 105 wk), Tumor Site: Type of Lesion: Respiratory epithelium: Adenoma (0/49; 0/49; 0/50; 3/49)): inactive; negative (although incidence at highest dose exceeded historical controls). con

Compound: c1ccc2c(c1)Oc1ccccc1O2
- carcinogen call (Species: MOUSE, Strain/Sex: B6C3F1/FEMALE, Route: ORAL, Dose: 0, 5000, 10000 PPM IN DIET, Dose: 0, 5000, 10000 PPM IN DIET): inactive; negative
- carcinogen call (Species: MOUSE, Strain/Sex: B6C3F1/MALE, Route: ORAL, Dose: 0, 5000, 10000 PPM IN DIET, Dose: 0, 5000, 10000 PPM IN DIET): inactive; negative
- carcinogen call (Species: RAT, Strain/Sex: OSBORNE-MENDEL/FEMALE, Route: ORAL, Dose: 0, 5000, 10000 PPM IN DIET, Dose: 0, 5000, 10000 PPM IN DIET): inactive; negative
- carcinogen call (Species: RAT, Strain/Sex: OSBORNE-MENDEL/MALE, Route: ORAL, Dose: 0, 5000, 10000 PPM IN DIET, Dose: 0, 5000, 10000 PPM IN DIET): inactive; negative

Source: PubChem BioAssay AID1259411 (Chemical Carcinogenesis Research Information System (CCRIS), 2018)
